The source of these data is ChEMBL document CHEMBL1127108, “Synthesis of ecdysteroid inhibitors of ecdysone biosynthesis. Inhibition of the C-25 hydroxylation” (1993).

As usually defined, the inhibition is the drop in the measured response relative to a control, in per cent.

Test [1] deals with Locusta migratoria. The experiment in a line: In vitro inhibitory activity of compound on ecdysone biosynthesis in larval prothoracic glands of Locusta migratoria; NI: No inhibition was observed. The class given is functional.
The subject of test [2] is Locusta migratoria. The experiment in a line: In vitro inhibitory activity of compound on ecdysone biosynthesis in larval prothoracic glands of Locusta migratoria at 10e-5 M concentration. Format: functional.

Regarding `CC(C1CCC2C3CC=C4C[C@@H](O)CC[C@]4(C)C3CC[C@@]21C)[C@@H](O)C#C[Si](C)(C)C` (stereo not given in full), the inhibition entry in test [1] was “No inhibition”.

`C#C[C@H](O)C(C)C1CCC2C3CC=C4C[C@@H](O)CC[C@]4(C)C3CC[C@@]21C` (stereo not given in full) showed an inhibition at 10 µM in test [2] of 36%.

Regarding `C#CC[C@H](O)C(C)C1CC[C@H]2[C@@H]3CC=C4C[C@@H](O)CC[C@]4(C)[C@H]3CC[C@]12C` (stereo not given in full), in test [2], the inhibition at 10 µM amounted to 37%.

Take `C#CC[C@@H](O)C(C)C1CCC2C3CC=C4C[C@@H](O)CC[C@]4(C)C3CC[C@@]21C` (stereo not given in full): at 10 µM the inhibition in test [2] was 66%. Compound `C#CC[C@@H](O)C(C)C1CC[C@H]2[C@@H]3CC=C4C[C@@H](O)CC[C@]4(C)[C@H]3CC[C@]12C` (stereo not given in full) returned an inhibition at 10 µM in test [2] of 36%.
